These results are taken from patent publication US11780823B2, “Indazole-3-carboxamides and their use as Wnt/β-catenin signaling pathway inhibitors” (BioSplice Therapeutics, Inc., priority 2011, dated 2023).

Each structure is given as a SMILES string. Where only a bound is given, the exact number is not on record here.

The assay deals with Wnt activity (wnt-responsive SP5 promoter luciferase reporter in SW480 cells). The assay is described as follows: Wnt reporter screening assay: SP5 promoter-driven firefly luciferase in SW480 cells. Format: cell-based. Particulars: Homo sapiens; SW480 colon cancer cells with SP5 promoter luciferase reporter; half-log dilutions, ten micromolar top concentration; read 24-40 h after compound addition; normalized to DMSO; read-out: Wnt inhibition. From the text: Another screening assay for Wnt activity is described as follows. Reporter cell lines can be generated by stably transducing cells of cancer cell lines (e.g., colon cancer) with a lentiviral construct that include a wnt-responsive promoter driving expression of the firefly luciferase gene.
Lentiviral constructs can be made in which the SP5 promoter, a promoter having eight TCF/LEF binding sites derived from the SP5 promoter, is linked upstream of the firefly luciferase gene. The lentiviral constructs can also include a hygromycin resistance gene as a selectable marker. The SP5 promoter construct can be used to transduce SW480 cells, a colon cancer cell line having a mutated APC gene that generates a truncated APC protein, leading to de-regulated accumulation of β-catenin.
Cultured SW480 cells bearing a reporter construct can be distributed at approximately 10,000 cells per well into 96 well or 384 well plates. Compounds from a small molecule compound library can then be added to the wells in half-log dilutions using a ten micromolar top concentration. A series of control wells for each cell type receive only buffer and compound solvent. Twenty-four to forty hours after the addition of compound, reporter activity for luciferase can be assayed, for example, by addition of the BrightGlo luminescence reagent (Promega) and the Victor3 plate reader (Perkin Elmer). Readings can be normalized to DMSO only treated cells, and normalized activities can then be used in the IC50 calculations.
Turning to `CN1CCN(c2cncc(-c3ccc4[nH]nc(C(=O)Nc5ccc(N6CCCC6)nc5)c4c3)c2)CC1` [Compound 186, 5-(5-(4-Methylpiperazin-1-yl)pyridin-3-yl)-N-(6-(pyrrolidin-1-yl)pyridin-3-yl)-1H-indazole-3-carboxamide], the IC50 amounted to 460 nM.

For the compound `O=C(Nc1ccc(-c2ccc(F)cc2)nc1)c1n[nH]c2ccc(-c3cncc(CN4CCCCC4)c3)cc12` [Compound 73, N-(6-(4-Fluorophenyl)pyridin-3-yl)-5-(5-(piperidin-1-ylmethyl)pyridin-3-yl)-1H-indazole-3-carboxamide], the IC50 was 322 nM.

In the case of `O=C(Nc1ccc(C(F)(F)F)nc1)c1n[nH]c2ccc(-c3cncc(CN4CCCCC4)c3)cc12` [Compound 63, 5-(5-(Piperidin-1-ylmethyl)pyridin-3-yl)-N-(6-(trifluoromethyl)pyridin-3-yl)-1H-indazole-3-carboxamide], the IC50 was 100 nM.

Turning to `Nc1cncc(-c2ccc3[nH]nc(C(=O)Nc4ccc(N5CCCCC5)nc4)c3c2)c1` [Compound 182, 5-(5-Aminopyridin-3-yl)-N-(6-(piperidin-1-yl)pyridin-3-yl)-1H-indazole-3-carboxamide], the IC50 was found to be 35 nM.

For the compound `O=C(Nc1ccncc1)c1n[nH]c2ccc(-c3cccnc3)cc12` [Compound 6, 5-(Pyridin-3-yl)-N-(pyridin-4-yl)-1H-indazole-3-carboxamide], the IC50 was 270 nM.

For the compound `O=C(Nc1ccc(Oc2ccccc2F)nc1)c1n[nH]c2ccc(-c3cccnc3)cc12` [Compound 18, N-(6-(2-fluorophenoxy)pyridin-3-yl)-5-(pyridin-3-yl)-1H-indazole-3-carboxamide], the IC50 is 122 nM.

For the compound `CN(C)Cc1cncc(-c2ccc3[nH]nc(C(=O)Nc4ccc(Oc5ccccc5F)nc4)c3c2)c1` [Compound 36, 5-(5-((Dimethylamino)methyl)pyridin-3-yl)-N-(6-(2-fluorophenoxy)pyridin-3-yl)-1H-indazole-3-carboxamide], the IC50 amounted to 275 nM.

With `CN(C)Cc1cncc(-c2ccc3[nH]nc(C(=O)Nc4ccc(C(F)(F)F)nc4)c3c2)c1` [Compound 26, 5-(5-((Dimethylamino)methyl)pyridin-3-yl)-N-(6-(trifluoromethyl)pyridin-3-yl)-1H-indazole-3-carboxamide], the IC50 was 210 nM.

Consider `O=C(Nc1cccnc1)c1n[nH]c2ccc(-c3cncc(C(F)(F)F)c3)cc12` [Compound 16, N-(pyridin-3-yl)-5-(5-(trifluoromethyl)pyridin-3-yl)-1H-indazole-3-carboxamide], for which the IC50 is at least 10000 nM.

With `O=C(Nc1cccnc1)c1n[nH]c2ccc(-c3cncc(Oc4ccccc4)c3)cc12` [Compound 56, 5-(5-Phenoxypyridin-3-yl)-N-(pyridin-3-yl)-1H-indazole-3-carboxamide], the IC50 is 160 nM.

On to `O=C(NC1CCOCC1)c1n[nH]c2ccc(-c3cncc(CN4CCCCC4)c3)cc12` [Compound 163, 5-(5-(Piperidin-1-ylmethyl)pyridin-3-yl)-N-(tetrahydro-2H-pyran-4-yl)-1H-indazole-3-carboxamide], for which the IC50 worked out at 15400 nM.

Regarding `O=C(Nc1ccc(N2CCCC2)nc1)c1n[nH]c2ccc(-c3cccnc3)cc12` [Compound 53, 5-(Pyridin-3-yl)-N-(6-(pyrrolidin-1-yl)pyridin-3-yl)-1H-indazole-3-carboxamide], the IC50 came to 63 nM.

As for `Cc1cc(NC(=O)c2n[nH]c3ccc(-c4cncc(CN5CCCCC5)c4)cc23)cnc1N1CCCC1` [Compound 172, N-(5-Methyl-6-(pyrrolidin-1-yl)pyridin-3-yl)-5-(5-(piperidin-1-ylmethyl)pyridin-3-yl)-1H-indazole-3-carboxamide], the IC50 was found to be 60 nM.

Take `CN1CCN(Cc2cc(F)cc(-c3ccc4[nH]nc(C(=O)Nc5cnccc5C(F)(F)F)c4c3)c2)CC1` [Compound 60, 5-(3-Fluoro-5-((4-methylpiperazin-1-yl)methyl)phenyl)-N-(4-(trifluoromethyl)pyridin-3-yl)-1H-indazole-3-carboxamide]: the IC50 was at least 10000 nM.

On to `O=C(Nc1cccnc1)c1n[nH]c2ccc(-c3ccc(N4CCCC4)nc3)cc12` [Compound 51, N-(Pyridin-3-yl)-5-(6-(pyrrolidin-1-yl)pyridin-3-yl)-1H-indazole-3-carboxamide], for which the IC50 was 26 nM.

As for `O=C(Nc1cccnc1)c1n[nH]c2ccc(-c3cc(F)cc(CN4CCCCC4)c3)cc12` [Compound 67, 5-(3-Fluoro-5-(piperidin-1-ylmethyl)phenyl)-N-(pyridin-3-yl)-1H-indazole-3-carboxamide], the IC50 is at least 10000 nM.

On to `CCOc1ccc(NC(=O)c2n[nH]c3ccc(-c4cncc(CN5CCCCC5)c4)cc23)cn1` [Compound 45, N-(6-Ethoxypyridin-3-yl)-5-(5-(piperidin-1-ylmethyl)pyridin-3-yl)-1H-indazole-3-carboxamide], for which the IC50 was 110 nM.

For `O=C(Nc1ccc(CN2CCCC2)nc1)c1n[nH]c2ccc(-c3cccnc3)cc12` [Compound 8, 5-(Pyridin-3-yl)-N-(6-(pyrrolidin-1-ylmethyl)pyridin-3-yl)-1H-indazole-3-carboxamide], the IC50 is 130 nM.

Turning to `O=C(Nc1ccc(N2CCNCC2)nc1)c1n[nH]c2ccc(-c3cncc(CN4CCCCC4)c3)cc12` [Compound 177, N-(6-(Piperazin-1-yl)pyridin-3-yl)-5-(5-(piperidin-1-ylmethyl)pyridin-3-yl)-1H-indazole-3-carboxamide], the IC50 stood at 183 nM.

As for `O=C(Nc1cccc(-c2cccc(F)c2)c1)c1n[nH]c2ccc(-c3cccnc3)cc12` [Compound 5, N-(3′-Fluorobiphenyl-3-yl)-5-(pyridin-3-yl)-1H-indazole-3-carboxamide], the IC50 was at least 10000 nM.

Take `O=C(NCc1cccnc1)c1n[nH]c2ccc(-c3cncc(CN4CCCCC4)c3)cc12` [Compound 76, 5-(5-(Piperidin-1-ylmethyl)pyridin-3-yl)-N-(pyridin-3-ylmethyl)-1H-indazole-3-carboxamide]: the IC50 amounted to 850 nM.

As to `CS(=O)(=O)c1ccc(NC(=O)c2n[nH]c3ccc(-c4cncc(CN5CCCCC5)c4)cc23)cn1` [Compound 185, N-(6-(Methylsulfonyl)pyridin-3-yl)-5-(5-(piperidin-1-ylmethyl)pyridin-3-yl)-1H-indazole-3-carboxamide], the IC50 is 27 nM.

With `CN(C)Cc1cncc(NC(=O)c2n[nH]c3ccc(-c4cncc(CN5CCCC5)c4)cc23)c1` [Compound 106, N-(5-((Dimethylamino)methyl)pyridin-3-yl)-5-(5-(pyrrolidin-1-ylmethyl)pyridin-3-yl)-1H-indazole-3-carboxamide], the IC50 is 33 nM.

Consider `O=C(Nc1cnccn1)c1n[nH]c2ccc(-c3cncc(CN4CCCCC4)c3)cc12` [Compound 81, 5-(5-(Piperidin-1-ylmethyl)pyridin-3-yl)-N-(pyrazin-2-yl)-1H-indazole-3-carboxamide], for which the IC50 was 77 to 142 nM.

On to `N#Cc1ccc(NC(=O)c2n[nH]c3ccc(-c4cncc(CN5CCCCC5)c4)cc23)cn1` [Compound 62, N-(6-cyanopyridin-3-yl)-5-(5-(piperidin-1-ylmethyl)pyridin-3-yl)-1H-indazole-3-carboxamide], for which the IC50 is 16 nM.

Take `O=C(Nc1ccc(-c2cccc(F)c2)nc1)c1n[nH]c2ccc(-c3cncc(CN4CCCCC4)c3)cc12` [Compound 72, N-(6-(3-Fluorophenyl)pyridin-3-yl)-5-(5-(piperidin-1-ylmethyl)pyridin-3-yl)-1H-indazole-3-carboxamide]: the IC50 amounted to 215 nM.

On to `CN(C)Cc1cncc(-c2ccc3[nH]nc(C(=O)Nc4cccnc4)c3c2)c1` [Compound 40, 5-(5-((Dimethylamino)methyl)pyridin-3-yl)-N-(pyridin-3-yl)-1H-indazole-3-carboxamide], for which the IC50 came to 65 nM.

In the case of `CCOc1ccc(NC(=O)c2n[nH]c3ccc(-c4cncc(CN5CCCC5)c4)cc23)cn1` [Compound 44, N-(6-Ethoxypyridin-3-yl)-5-(5-(pyrrolidin-1-ylmethyl)pyridin-3-yl)-1H-indazole-3-carboxamide], the IC50 amounted to 158 nM.

As to `O=C(Nc1ccc(N2CCCC2)nc1)c1n[nH]c2ccc(-c3cncc(CN4CCC(F)(F)C4)c3)cc12` [Compound 183, 5-(5-((3,3-Difluoropyrrolidin-1-yl)methyl)pyridin-3-yl)-N-(6-(pyrrolidin-1-yl)pyridin-3-yl)-1H-indazole-3-carboxamide], the IC50 is 49 nM.

For the compound `O=C(NC1CCCC1)c1ccc(NC(=O)c2n[nH]c3ccc(-c4cccnc4)cc23)cn1` [Compound 181, N-(6-(Cyclopentylcarbamoyl)pyridin-3-yl)-5-(pyridin-3-yl)-1H-indazole-3-carboxamide], the IC50 is 38 nM.

Regarding `O=C(Nc1ccc(-c2ccccc2)nc1)c1n[nH]c2ccc(-c3cncc(CN4CCCCC4)c3)cc12` [Compound 65, N-(6-Phenylpyridin-3-yl)-5-(5-(piperidin-1-ylmethyl)pyridin-3-yl)-1H-indazole-3-carboxamide], the IC50 was 101 nM.

With `O=C(Nc1cccnc1)c1n[nH]c2ccc(-c3cncc(CN4CCOCC4)c3)cc12` [Compound 64, 5-(5-(Morpholinomethyl)pyridin-3-yl)-N-(pyridin-3-yl)-1H-indazole-3-carboxamide], the IC50 turned out to be 6 nM.
